This is an account of results in patent US20120065066A1, “NOVEL HERBICIDES” (SYNGENTA CROP PROTECTION LLC, priority 2009, published 2012).

What all share (type): in vivo
Experiment [1] concerns Digitaria sanguinalis (DIGSA). The experiment in a line: Test Example 1, pre-emergence herbicidal test. The note with it: 480 h, evaluated 20 days later, 100=total damage to plant, 0=no damage to plant. On the procedure: (§1) Monocotyledonous and dicotyledonous test plants were sown in standard soil in pots. After cultivation for one day (pre-emergence) or after 10 days cultivation (post-emergence) under controlled conditions in a glasshouse, the plants were sprayed with an aqueous spray solution derived from the formulation of the technical active ingredient in 0.6 ml acetone and 45 ml formulation solution containing 10.6% Emulsogen EL (Registry number 61791-12-6), 42.2% N-methylpyrrolidone, 42.2% dipropylene glycol monomethyl ether (Registry number 34590-94-8) and 0.2% X-77 (Registry number 11097-66-8). The test plants were then grown in a greenhouse under optimum conditions until, 15 days later for post-emergence and 20 days for pre-emergence, the test was evaluated (100=total damage to plant; 0=no damage to plant). Test Plants: Lolium perenne (LOLPE), Setaria faberi (SETFA), Digitaria sanguinalis (DIGSA), Alopecurus myosuroides (ALOMY), Echinochloa crus-galli (ECHCG) and Avena fatua (AVEFA), Pre-Emergence Data: […]

The test system of experiment [2] is Avena fatua (AVEFA). The experiment in a line: Test Example 1, pre-emergence herbicidal test. The note with it: 480 h, evaluated 20 days later, 100=total damage to plant, 0=no damage to plant. Here is the method: as §1
The test system of experiment [3] is Setaria faberi (SETFA). The experiment in a line: Test Example 1, pre-emergence herbicidal test. To be noted: 480 h, evaluated 20 days later, 100=total damage to plant, 0=no damage to plant, read-out: SEFTA damage to plant. On the procedure: as §1
Experiment [4] concerns Echinochloa crus-galli (ECHCG). The experiment can be described thus: Test Example 1, pre-emergence herbicidal test. The note with it: 480 h, evaluated 20 days later, 100=total damage to plant, 0=no damage to plant. Here is the method: as §1
The test system of experiment [5] is Lolium perenne (LOLPE). The experiment in a line: Test Example 1, pre-emergence herbicidal test. The note with it: 480 h, evaluated 20 days later, 100=total damage to plant, 0=no damage to plant. On the procedure: as §1
Experiment [6] deals with Alopecurus myosuroides (ALOMY). The experiment can be described thus: Test Example 1, pre-emergence herbicidal test. The note with it: 480 h, evaluated 20 days later, 100=total damage to plant, 0=no damage to plant. On the procedure: as §1
Experiment [7] has as its system Digitaria sanguinalis (DIGSA). The experiment can be described thus: Test Example 1, post-emergence herbicidal test. To be noted: 360 h, evaluated 15 days later, 100=total damage to plant, 0=no damage to plant. Here is the method:
as §1, with “Post-Emergence” for “Pre-Emergence”

In experiment [8] the test system is Avena fatua (AVEFA). The experiment can be described thus: Test Example 1, post-emergence herbicidal test. The note with it: 360 h, evaluated 15 days later, 100=total damage to plant, 0=no damage to plant. On the procedure:
as §1, with “Post-Emergence” for “Pre-Emergence”

Experiment [9] concerns Setaria faberi (SETFA). The experiment in a line: Test Example 1, post-emergence herbicidal test. The note with it: 360 h, evaluated 15 days later, 100=total damage to plant, 0=no damage to plant, read-out: SEFTA damage to plant. On the procedure:
as §1, with “Post-Emergence” for “Pre-Emergence”

Experiment [10] relates to Echinochloa crus-galli (ECHCG). The experiment can be described thus: Test Example 1, post-emergence herbicidal test. The note with it: 360 h, evaluated 15 days later, 100=total damage to plant, 0=no damage to plant. On the procedure: as §1, with “Post-Emergence” for “Pre-Emergence”
For experiment [11], the system named is Lolium perenne (LOLPE). The experiment can be described thus: Test Example 1, post-emergence herbicidal test. To be noted: 360 h, evaluated 15 days later, 100=total damage to plant, 0=no damage to plant. On the procedure:
as §1, with “Post-Emergence” for “Pre-Emergence”

Experiment [12] concerns Alopecurus myosuroides (ALOMY). The experiment in a line: Test Example 1, post-emergence herbicidal test. The note with it: 360 h, evaluated 15 days later, 100=total damage to plant, 0=no damage to plant. On the procedure: as §1, with “Post-Emergence” for “Pre-Emergence”

On to `Cc1cc(C)c(C2=C(O)[C@H]3[C@H]4CC[C@H](C4)[C@H]3C2=O)c(C)c1` (racemic) [Compound T50, rac-(5S,6S,7R)-2-(2,4,6-trimethylphenyl)hexahydro-4,7-methanoindene-1,3-dione], for which the pest or weed control at 250 g/ha in [1] was determined as 80%; with Avena fatua (AVEFA) [2], 50%; with Setaria faberi (SETFA) [3], 100%; in experiment [4] it was 70%; with Lolium perenne (LOLPE) [5] it was 100%; in experiment [6], 70%. Also, the pest or weed control at 125 g/ha was found to be 30% in experiment [7]; 10% in the experiment on Avena fatua (AVEFA) [8]; 0% in the experiment with Setaria faberi (SETFA) [9]; 20% in [10]; 30% in the experiment on Lolium perenne (LOLPE) [11]; 30% in [12].
For the compound `CCc1cc(C)cc(CC)c1C1=C(O)[C@@H]2[C@H](C1=O)[C@@H]1CC[C@H]2C1=C(C)C` [Compound T51], the pest or weed control at 250 g/ha in experiment [1] turned out to be 80%; with Avena fatua (AVEFA) [2], 60%; in the experiment with Setaria faberi (SETFA) [3] it was 80%; in [4], 90%; with Lolium perenne (LOLPE) [5], 100%; in experiment [6], 60%. Moreover, the pest or weed control at 125 g/ha in experiment [7] was determined as 30%; in the experiment on Avena fatua (AVEFA) [8], 0%; in the experiment on Setaria faberi (SETFA) [9], 0%; in experiment [10], 10%; with Lolium perenne (LOLPE) [11], 50%; in [12], 30%.
Turning to `CCc1cc(C)cc(CC)c1C1=C(O)[C@H]2[C@@H]3CC[C@@H](C(=O)C3)[C@H]2C1=O` [Compound T54], the pest or weed control at 250 g/ha in [1] was 80%; in the experiment with Avena fatua (AVEFA) [2] it was 70%; with Setaria faberi (SETFA) [3], 80%; in experiment [4] it was 70%; with Lolium perenne (LOLPE) [5], 90%; in experiment [6], 70%. Further, the pest or weed control at 125 g/ha in [7] was 80%; in the experiment with Avena fatua (AVEFA) [8], 60%; in the experiment with Setaria faberi (SETFA) [9], 80%; in [10] it was 80%; with Lolium perenne (LOLPE) [11] it was 50%; in experiment [12], 60%.
In the case of `CCc1cc(C)cc(CC)c1C1=C(O)[C@@H]2[C@H](C1=O)[C@H]1CC[C@@H]2C1=C(C)C` [Compound T52], the pest or weed control at 250 g/ha is 80% in [1]; 60% in the experiment with Avena fatua (AVEFA) [2]; 100% in the experiment on Setaria faberi (SETFA) [3]; 90% in experiment [4]; 70% in the experiment with Lolium perenne (LOLPE) [5]; 50% in experiment [6]. In addition, the pest or weed control at 125 g/ha in experiment [7] worked out at 70%; in the experiment on Avena fatua (AVEFA) [8], 20%; with Setaria faberi (SETFA) [9] it was 80%; in experiment [10] it was 80%; in the experiment with Lolium perenne (LOLPE) [11], 50%; in experiment [12], 90%.
For `CCc1cc(C)cc(CC)c1C1=C(O)[C@H]2[C@H]3C=C[C@](OC)(CC3)[C@H]2C1=O` [Compound T55], the pest or weed control at 250 g/ha in [1] is 100%; in the experiment with Avena fatua (AVEFA) [2], 70%; in the experiment on Setaria faberi (SETFA) [3] it was 100%; in experiment [4], 100%; in the experiment on Lolium perenne (LOLPE) [5], 100%; in experiment [6], 100%. For the same compound, the pest or weed control at 125 g/ha in experiment [7] turned out to be 80%; with Avena fatua (AVEFA) [8] it was 80%; in the experiment with Setaria faberi (SETFA) [9], 90%; in experiment [10], 100%; with Lolium perenne (LOLPE) [11] it was 70%; in [12] it was 80%.
